Data as given in article PMC4467398, “Preclinical antitumor activity of ST7612AA1: a new oral thiol-based histone deacetylase (HDAC) inhibitor” (Oncotarget, 2014).

Test system: DOHH2 and TMD8 DLBCL cells
Assay: Gene expression profiling (HumanHT-12 v4 BeadChip, limma), ST7612AA1 300 nM 8 hrs vs DMSO
Assay type: cell-based, human
Details: 300 nM 8 hrs vs DMSO

For `CC(=O)SCCCCC[C@H](NC(=O)[C@H]1CCC(=O)N1)C(=O)Nc1ccccc1` [ST7612AA1], the “log ratio ATP6V0C (probe ILMN_1773849)” value was 8.22E-01, the “log ratio ATP6V1G2 (probe ILMN_1654541)” value was 8.47E-01 and the “log ratio ATP6V1H (ILMN_2403730)” value was 6.35E-01. The “log ratio ATP7B (probe ILMN_1722056)” value was 8.88E-01, the “log ratio AVEN (ILMN_1710216)” value was -1.49E+00 and the “log ratio AVPI1 (probe ILMN_1671731)” value was 8.94E-01. The “log ratio AZI1 (probe ILMN_1746206)” value was 7.59E-01, the “log ratio BAG2 (ILMN_3244893)” value was -9.02E-01 and the “log ratio BCCIP (ILMN_1771966)” value was -9.03E-01. The “log ratio BCLAF1 (ILMN_1775192)” value was -8.85E-01, the “log ratio BCLAF1 (ILMN_2357272)” value was -8.42E-01 and the “log ratio BEND3 (ILMN_2375032)” value was -9.71E-01. The “log ratio BHLHB2 (ILMN_1768534)” value was -5.96E-01, the “log ratio BID (ILMN_1763386)” value was -1.18E+00 and the “log ratio BID (ILMN_2372413)” value was -8.80E-01. The “log ratio BIK (probe ILMN_1770505)” value was 7.57E-01, the “log ratio BLK (ILMN_1668277)” value was -8.77E-01 and the “log ratio BLVRB (probe ILMN_1797793)” value was 8.74E-01. For the same compound, the “log ratio BMF (ILMN_1695354)” value was 6.49E-01, the “log ratio BNIP3L (probe ILMN_1718961)” value was 8.34E-01 and the “log ratio BPHL (probe ILMN_1657746)” value was 8.91E-01. For the same compound, the “log ratio BRIX1 (ILMN_1679800)” value was -1.03E+00, the “log ratio BRIX1 (ILMN_2155172)” value was -1.19E+00 and the “log ratio BRPF3 (ILMN_1658800)” value was -7.82E-01. For the same compound, the “log ratio C3orf34 (probe ILMN_1665217)” value was 6.96E-01, the “log ratio C4orf32 (probe ILMN_1700257)” value was 8.83E-01 and the “log ratio C7orf47 (ILMN_1741475)” value was 6.62E-01. The “log ratio C7orf55 (ILMN_3238680)” value was -1.06E+00, the “log ratio C8orf13 (ILMN_1687213)” value was 6.60E-01 and the “log ratio C8orf33 (ILMN_2098325)” value was -8.34E-01. For the same compound, the “log ratio C9orf45 (ILMN_1719998)” value was 6.75E-01, the “log ratio C10orf32 (ILMN_2151056)” value was -8.22E-01 and the “log ratio C12orf24 (ILMN_2180371)” value was -1.09E+00. For the same compound, the “log ratio C12orf52 (probe ILMN_1667857)” value was 6.98E-01, the “log ratio C13orf15 (probe ILMN_1658494)” value was 7.74E-01 and the “log ratio C13orf25 (ILMN_1660754)” value was -8.20E-01. For the same compound, the “log ratio C14orf4 (ILMN_1804396)” value was 6.53E-01, the “log ratio C14orf173 (probe ILMN_2393450)” value was 7.70E-01 and the “log ratio C14orf179 (probe ILMN_1756877)” value was 7.81E-01. The “log ratio C16orf57 (ILMN_1765880)” value was 6.49E-01, the “log ratio C17orf58 (ILMN_1712985)” value was 6.08E-01 and the “log ratio C17orf58 (ILMN_2398926)” value was 6.52E-01. For the same compound, the “log ratio C18orf45 (ILMN_1690442)” value was 6.69E-01, the “log ratio C18orf55 (ILMN_1748916)” value was -8.33E-01 and the “log ratio C19orf2 (ILMN_2406892)” value was -6.10E-01. For the same compound, the “log ratio C20orf108 (ILMN_1708016)” value was 6.16E-01, the “log ratio C20orf177 (ILMN_1718712)” value was -9.03E-01 and the “log ratio CA2 (probe ILMN_2199439)” value was 7.93E-01. For the same compound, the “log ratio CABLES1 (ILMN_1653001)” value was -5.93E-01, the “log ratio CALM1 (ILMN_1778242)” value was 6.20E-01 and the “log ratio CAMLG (probe ILMN_1714599)” value was 7.30E-01. For the same compound, the “log ratio CARHSP1 (ILMN_1809477)” value was 5.98E-01, the “log ratio CASC1 (ILMN_1708983)” value was 6.58E-01 and the “log ratio CASC4 (probe ILMN_2325574)” value was 6.85E-01. The “log ratio CBX7 (probe ILMN_1657361)” value was 7.49E-01, the “log ratio CCDC6 (ILMN_1745904)” value was 6.24E-01 and the “log ratio CCDC16 (ILMN_2154603)” value was -8.59E-01. The “log ratio CCDC24 (probe ILMN_1718771)” value was 6.89E-01, the “log ratio CCDC43 (ILMN_1743783)” value was -5.96E-01 and the “log ratio CCDC58 (ILMN_1686920)” value was -1.25E+00. For the same compound, the “log ratio CCDC59 (ILMN_1662318)” value was -8.48E-01, the “log ratio CCDC86 (ILMN_1792681)” value was -9.35E-01 and the “log ratio CCDC92 (probe ILMN_1731107)” value was 8.05E-01. The “log ratio CCDC128 (ILMN_1667356)” value was 6.21E-01, the “log ratio CCNYL1 (ILMN_1810069)” value was 6.58E-01 and the “log ratio CCNYL1 (ILMN_2166524)” value was 6.44E-01. For the same compound, the “log ratio CCR7 (ILMN_1715131)” value was 6.79E-01, the “log ratio CD58 (ILMN_1785268)” value was -9.16E-01 and the “log ratio CD58 (ILMN_2147517)” value was -9.82E-01. The “log ratio CD74 (ILMN_1736567)” value was 6.75E-01, the “log ratio CD74 (probe ILMN_1761464)” value was 8.47E-01 and the “log ratio CD74 (probe ILMN_2379644)” value was 7.27E-01. The “log ratio CDC2L6 (probe ILMN_1676891)” value was 6.96E-01, the “log ratio CDC25A (ILMN_1711005)” value was -8.24E-01 and the “log ratio CDC42EP5 (probe ILMN_1774982)” value was 8.75E-01. For the same compound, the “log ratio CDK2AP2 (probe ILMN_1690653)” value was 8.01E-01, the “log ratio CDK4 (ILMN_1689001)” value was -8.13E-01 and the “log ratio CECR1 (probe ILMN_1751851)” value was 8.43E-01. The “log ratio CEP70 (ILMN_1741350)” value was 6.16E-01, the “log ratio CERK (ILMN_1767475)” value was 6.70E-01 and the “log ratio CHCHD4 (ILMN_1813938)” value was -1.36E+00. The “log ratio CHD7 (ILMN_1677376)” value was 6.71E-01, the “log ratio CHRAC1 (ILMN_1722390)” value was -6.19E-01 and the “log ratio CHSY1 (ILMN_1791576)” value was 6.80E-01. The “log ratio CLCC1 (probe ILMN_1671933)” value was 8.48E-01, the “log ratio CLECL1 (ILMN_1782729)” value was -1.24E+00 and the “log ratio CLIC4 (probe ILMN_2063586)” value was 7.49E-01. For the same compound, the “log ratio CLIP2 (ILMN_2352190)” value was 6.09E-01, the “log ratio CMIP (ILMN_1738075)” value was 6.47E-01 and the “log ratio CMTM8 (probe ILMN_1710124)” value was 7.00E-01. The “log ratio CNFN (ILMN_1803838)” value was 6.20E-01, the “log ratio CNIH2 (ILMN_1698733)” value was 6.32E-01 and the “log ratio COCH (ILMN_1711514)” value was -6.14E-01. For the same compound, the “log ratio COIL (ILMN_1688034)” value was -9.94E-01, the “log ratio COTL1 (probe ILMN_1788283)” value was 6.87E-01 and the “log ratio CPOX (ILMN_3240389)” value was 6.04E-01. The “log ratio CRIP1 (probe ILMN_1656920)” value was 8.56E-01, the “log ratio CRYM (probe ILMN_1779241)” value was 8.32E-01 and the “log ratio CSRP1 (probe ILMN_1811921)” value was 7.01E-01. The “log ratio CSTB (probe ILMN_1761797)” value was 8.06E-01, the “log ratio CTPS (ILMN_1783285)” value was -1.21E+00 and the “log ratio CTSB (probe ILMN_2359742)” value was 8.56E-01. For the same compound, the “log ratio CUEDC1 (ILMN_1676665)” value was 5.93E-01, the “log ratio CUL1 (ILMN_1749629)” value was -1.05E+00 and the “log ratio CXADR (probe ILMN_1796925)” value was 8.18E-01. The “log ratio CXCL16 (ILMN_1728478)” value was 6.11E-01, the “log ratio CXorf26 (ILMN_1768176)” value was -1.34E+00 and the “log ratio CXorf57 (probe ILMN_1703279)” value was 8.25E-01. The “log ratio CYB5R1 (probe ILMN_1729237)” value was 7.59E-01, the “log ratio CYB5R3 (probe ILMN_1740441)” value was 7.06E-01 and the “log ratio CYP2R1 (probe ILMN_2119774)” value was 7.88E-01. For the same compound, the “log ratio DAD1 (ILMN_1731619)” value was 6.40E-01, the “log ratio DCTD (ILMN_1802456)” value was -1.08E+00 and the “log ratio DCTN6 (ILMN_1744059)” value was -8.19E-01. The “log ratio DCXR (ILMN_1681437)” value was 6.03E-01, the “log ratio DDN (ILMN_1673450)” value was -6.03E-01 and the “log ratio DDX21 (ILMN_1735461)” value was -9.88E-01. For the same compound, the “log ratio DEF8 (probe ILMN_1767509)” value was 8.37E-01, the “log ratio DGCR6L (probe ILMN_3245688)” value was 7.47E-01 and the “log ratio DGKQ (ILMN_1793017)” value was 6.08E-01. The “log ratio DHRS2 (ILMN_1725726)” value was 6.46E-01, the “log ratio DIS3L (ILMN_1795822)” value was -1.05E+00 and the “log ratio DKC1 (ILMN_1671257)” value was -1.02E+00. For the same compound, the “log ratio DNLZ (ILMN_2112049)” value was -1.09E+00, the “log ratio DNMT3B (probe ILMN_1794692)” value was 8.14E-01 and the “log ratio DOK4 (ILMN_1774261)” value was 6.37E-01. For the same compound, the “log ratio DPF1 (ILMN_1769961)” value was 6.38E-01, the “log ratio DPH2 (ILMN_2375418)” value was -1.21E+00 and the “log ratio DSTN (probe ILMN_1706426)” value was 7.52E-01. The “log ratio DTX1 (ILMN_1689002)” value was -5.96E-01, the “log ratio DUS3L (ILMN_1723235)” value was -1.36E+00 and the “log ratio DYNC1H1 (probe ILMN_1780302)” value was 6.97E-01. For the same compound, the “log ratio DYNLL2 (probe ILMN_1772796)” value was 8.61E-01, the “log ratio DYRK1A (ILMN_2374293)” value was -5.97E-01 and the “log ratio DYRK3 (probe ILMN_2400322)” value was 6.97E-01. The “log ratio DYRK3 (probe ILMN_2400326)” value was 8.26E-01, the “log ratio EARS2 (ILMN_1758750)” value was -5.91E-01 and the “log ratio EBI2 (ILMN_1798706)” value was -8.22E-01. The “log ratio EBI2 (ILMN_2168217)” value was -9.10E-01, the “log ratio ECHS1 (probe ILMN_1718132)” value was 7.78E-01 and the “log ratio EEF1B2 (ILMN_1685678)” value was -8.07E-01. For the same compound, the “log ratio EEF1E1 (ILMN_1725105)” value was -8.38E-01, the “log ratio EGR1 (probe ILMN_1762899)” value was 8.42E-01 and the “log ratio ELOF1 (probe ILMN_1723185)” value was 7.14E-01. For the same compound, the “log ratio EMG1 (ILMN_1797074)” value was -1.12E+00, the “log ratio ENC1 (probe ILMN_1779147)” value was 7.93E-01 and the “log ratio ENO2 (probe ILMN_1765796)” value was 7.11E-01. The “log ratio EPB41L5 (ILMN_1770245)” value was 6.78E-01, the “log ratio EPN1 (ILMN_1772981)” value was 6.50E-01 and the “log ratio ERRFI1 (probe ILMN_1665510)” value was 7.44E-01.
